Common to all, as to assay type: cell-based
In assay [1] the target is T1, rP2RX7 (Rattus norvegicus, UniProt Q64663).
T1 construct: gene P2rx7; rat P2RX7 cDNA in Xenopus laevis oocytes; homotrimer
T1 sequence (Q64663 1-595): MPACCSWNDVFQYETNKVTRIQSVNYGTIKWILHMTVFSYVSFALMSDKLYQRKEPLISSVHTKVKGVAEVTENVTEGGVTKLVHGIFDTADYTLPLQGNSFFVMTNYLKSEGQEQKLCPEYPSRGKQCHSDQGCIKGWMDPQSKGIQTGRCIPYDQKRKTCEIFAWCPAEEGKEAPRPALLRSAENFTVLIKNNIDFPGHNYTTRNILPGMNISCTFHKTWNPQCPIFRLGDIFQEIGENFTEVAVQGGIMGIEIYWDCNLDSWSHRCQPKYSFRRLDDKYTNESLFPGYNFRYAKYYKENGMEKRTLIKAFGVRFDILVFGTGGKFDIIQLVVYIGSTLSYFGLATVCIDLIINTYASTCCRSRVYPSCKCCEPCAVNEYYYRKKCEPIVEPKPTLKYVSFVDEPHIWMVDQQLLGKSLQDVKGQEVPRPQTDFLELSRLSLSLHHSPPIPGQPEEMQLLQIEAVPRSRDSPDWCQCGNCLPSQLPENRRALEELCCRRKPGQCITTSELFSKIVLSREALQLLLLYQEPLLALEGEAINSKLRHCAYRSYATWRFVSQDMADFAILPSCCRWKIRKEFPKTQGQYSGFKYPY
Put plainly: two-electrode voltage clamp, inhibition of ATP-evoked current. The settings on record: antagonist; 2 min pre-application, then co-applied with ATP; -70 mV, pH 7.5. On the technique in general: Two-electrode voltage clamp is typically applied to oocytes expressing channels or transporters.

The target of assay [2] is T2, poP2RX7 (Paralichthys olivaceus, UniProt A0A059T2C6).
T2 construct: Xenopus laevis oocytes; homotrimer
Described as above. The settings on record: antagonist; 2 min pre-application, then co-applied with ATP; -70 mV, pH 7.5.

For assay [3], the target named is T2, poP2RX7. The description is as above. To be noted: antagonist; 2 min pre-application, then co-applied with ATP; -70 mV, pH 7.5. This is another data set of the same source.
Assay [4] deals with T2, poP2RX7. Put plainly: two-electrode voltage clamp, Xenopus oocytes.
For assay [5], the target named is T1, rP2RX7. Put plainly: two-electrode voltage clamp, Xenopus oocytes.

T2 sequence (A0A059T2C6 entry or part of it): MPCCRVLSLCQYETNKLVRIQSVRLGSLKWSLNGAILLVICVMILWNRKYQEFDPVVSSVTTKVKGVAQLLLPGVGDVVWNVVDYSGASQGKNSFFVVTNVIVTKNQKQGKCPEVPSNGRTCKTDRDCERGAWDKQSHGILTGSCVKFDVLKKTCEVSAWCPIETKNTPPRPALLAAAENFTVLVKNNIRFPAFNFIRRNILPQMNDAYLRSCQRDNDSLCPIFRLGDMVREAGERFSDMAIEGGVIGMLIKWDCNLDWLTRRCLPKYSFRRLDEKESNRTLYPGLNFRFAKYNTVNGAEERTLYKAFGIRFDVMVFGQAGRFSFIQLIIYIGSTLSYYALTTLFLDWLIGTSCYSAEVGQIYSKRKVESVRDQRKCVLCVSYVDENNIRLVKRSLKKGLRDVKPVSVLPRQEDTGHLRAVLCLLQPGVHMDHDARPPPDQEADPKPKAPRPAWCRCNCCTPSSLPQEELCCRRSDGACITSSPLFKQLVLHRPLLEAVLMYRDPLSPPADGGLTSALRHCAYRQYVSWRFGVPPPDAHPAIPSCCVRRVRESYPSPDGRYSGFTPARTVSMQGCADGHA

Consider `CCOc1ccc(Nc2ccc(C(=C3C=CC(=[N+](CC)Cc4cccc(S(=O)(=O)[O-])c4)C=C3C)c3ccc(N(CC)Cc4cccc(S(=O)(=O)O)c4)cc3C)cc2)cc1` [BBG], for which the inhibition entry in assay [1] was “inhibition induced by BBG or AZ10606120 (AZ) at poP2RX7 (open bars) and rP2RX7”. Moreover, the “inhibition at 1 μM” value in assay [2] is listed as “ATP-evoked currents at poP2RX7 could be inhibited by both of the antagonists”.

As for `O=C(CC12CC3CC(CC(C3)C1)C2)Nc1cccc2nc(NCCNCCO)ccc12` [AZ10606120], the inhibition entry in assay [1] is given as “AZ10606120 was less potent in poP2RX7 than in rP2RX7”. The “inhibition at 20 μM” value in assay [3] is on record as “AZ10606120 was less potent in poP2RX7 than in rP2RX7”.

In the case of `Nc1ncnc2c1ncn2[C@@H]1O[C@H](COP(=O)(O)OP(=O)(O)OP(=O)(O)O)[C@@H](OC(=O)c2ccc(C(=O)c3ccccc3)cc2)[C@H]1O` [BzATP], the results for the EC50 in assay [4] and in assay [5] were 743 ± 299 µM and 13.3 ± 1.6 µM, respectively.

Turning to `Nc1ncnc2c1ncn2[C@@H]1O[C@H](COP(=O)(O)OP(=O)(O)OP(=O)(O)O)[C@@H](O)[C@H]1O` [ATP], the EC50 in assay [4] came to 790 ± 81 µM; in assay [5] it was 376 ± 120 µM.

By EC50 is commonly meant the concentration that produces a half-maximal response. Read a low EC50 as an effect from little substance.

(Values after article PMC4010493, “Molecular Characterization and Expression Analysis of ATP-Gated P2X7 Receptor Involved in Japanese Flounder (Paralichthys olivaceus) Innate Immune Response” (PLoS ONE, 2014).)
